Assays:
ISC-enriched organoids [1] = experiment: Primary screen, 384-well 2.5-D organoid differentiation (ENR+CD, 6 days, Target Selective Inhibitor Library, vs whole-plate median): ATP (CellTiter-Glo 3D, CTG); conditions: primary screen; for Dose.FC.CTG: FC vs plate median; for Z.CTG: standard z score; for SSMD.CTG: strictly standardized mean difference
ISC-enriched organoids [2] = experiment: Primary screen, 384-well 2.5-D organoid differentiation (ENR+CD, 6 days): carbachol-induced lysozyme secretion (LYZ.S); type: cell-based, murine; conditions: primary screen; for Dose.FC.LYZ.S: FC vs plate median; for Z.LYZ.S: standard z score; for SSMD.LYZ.S: strictly standardized mean difference
Text: (§1) High-throughput screening.

ISC-enriched organoids [3] = experiment: Primary screen, 384-well 2.5-D organoid differentiation (ENR+CD, 6 days): basal lysozyme secretion (LYZ.NS); type: cell-based, murine; conditions: primary screen; for Dose.FC.LYZ.NS: FC vs plate median; for Z.LYZ.NS: standard z score; for SSMD.LYZ.NS: strictly standardized mean difference
Text: as §1

[4] = 1st of the 4 dose lines of the treatment (dose not given)
[5] = 2nd of the 4 dose lines of the treatment (dose not given)
[6] = 3rd of the 4 dose lines of the treatment (dose not given)
[7] = 4th of the 4 dose lines of the treatment (dose not given)

Cc1cc(Nc2cc(CN3CCOCC3)c3nc(C)c(Cc4ccc(Cl)cc4F)n3n2)n[nH]1 [LY2784544]
Dose.FC.CTG (ISC-enriched organoids [1]; Dose 0.08 uM): 0.108 log 2 fold change
Z.CTG (ISC-enriched organoids [1]; Dose 0.08 uM): 0.259
Dose.FC.CTG (ISC-enriched organoids [1]; Dose 0.40 uM): 0.062 log 2 fold change
Z.CTG (ISC-enriched organoids [1]; Dose 0.40 uM): 0.148
Dose.FC.CTG (ISC-enriched organoids [1]; Dose 2.00 uM): 0.181 log 2 fold change
Z.CTG (ISC-enriched organoids [1]; Dose 2.00 uM): 0.433
Dose.FC.CTG (ISC-enriched organoids [1]; Dose 10.00 uM): −0.831 log 2 fold change
Z.CTG (ISC-enriched organoids [1]; Dose 10.00 uM): −1.984
SSMD.CTG (ISC-enriched organoids [1]; [4]): 0.378
SSMD.CTG (ISC-enriched organoids [1]; [5]): 0.135
SSMD.CTG (ISC-enriched organoids [1]; [6]): 0.500
SSMD.CTG (ISC-enriched organoids [1]; [7]): −1.283
Dose.FC.LYZ.S (ISC-enriched organoids [2]; Dose 0.08 uM): 0.123 log 2 fold change
Dose.FC.LYZ.S (ISC-enriched organoids [2]; Dose 0.40 uM): 0.077 log 2 fold change
Dose.FC.LYZ.S (ISC-enriched organoids [2]; Dose 2.00 uM): 0.114 log 2 fold change
Dose.FC.LYZ.S (ISC-enriched organoids [2]; Dose 10.00 uM): −0.367 log 2 fold change
Z.LYZ.S (ISC-enriched organoids [2]; [4]): 0.794
Z.LYZ.S (ISC-enriched organoids [2]; [5]): 0.498
Z.LYZ.S (ISC-enriched organoids [2]; [6]): 0.737
Z.LYZ.S (ISC-enriched organoids [2]; [7]): −2.373
SSMD.LYZ.S (ISC-enriched organoids [2]; [4]): 0.911
SSMD.LYZ.S (ISC-enriched organoids [2]; [5]): 0.595
SSMD.LYZ.S (ISC-enriched organoids [2]; [6]): 0.492
SSMD.LYZ.S (ISC-enriched organoids [2]; [7]): −2.074
Dose.FC.LYZ.NS (ISC-enriched organoids [3]; Dose 0.08 uM): 0.132 log 2 fold change
Z.LYZ.NS (ISC-enriched organoids [3]; Dose 0.08 uM): 1.152
Dose.FC.LYZ.NS (ISC-enriched organoids [3]; Dose 0.40 uM): 0.004 log 2 fold change
Z.LYZ.NS (ISC-enriched organoids [3]; Dose 0.40 uM): 0.033
Dose.FC.LYZ.NS (ISC-enriched organoids [3]; Dose 2.00 uM): 0.068 log 2 fold change
Z.LYZ.NS (ISC-enriched organoids [3]; Dose 2.00 uM): 0.591
Dose.FC.LYZ.NS (ISC-enriched organoids [3]; Dose 10.00 uM): −0.280 log 2 fold change
Z.LYZ.NS (ISC-enriched organoids [3]; Dose 10.00 uM): −2.439
SSMD.LYZ.NS (ISC-enriched organoids [3]; [4]): 0.395
SSMD.LYZ.NS (ISC-enriched organoids [3]; [5]): 0.037
SSMD.LYZ.NS (ISC-enriched organoids [3]; [6]): 0.582
SSMD.LYZ.NS (ISC-enriched organoids [3]; [7]): −2.015

Cc1ccc(NCCCc2ccccc2)c(N)c1 [JSH-23]
Dose.FC.CTG (ISC-enriched organoids [1]; Dose 0.08 uM): 0.193 log 2 fold change
Z.CTG (ISC-enriched organoids [1]; Dose 0.08 uM): 0.462
Dose.FC.CTG (ISC-enriched organoids [1]; Dose 0.40 uM): 0.230 log 2 fold change
Z.CTG (ISC-enriched organoids [1]; Dose 0.40 uM): 0.548
Dose.FC.CTG (ISC-enriched organoids [1]; Dose 2.00 uM): 0.074 log 2 fold change
Z.CTG (ISC-enriched organoids [1]; Dose 2.00 uM): 0.176
Dose.FC.CTG (ISC-enriched organoids [1]; Dose 10.00 uM): 0.046 log 2 fold change
Z.CTG (ISC-enriched organoids [1]; Dose 10.00 uM): 0.110
SSMD.CTG (ISC-enriched organoids [1]; [4]): 0.462
SSMD.CTG (ISC-enriched organoids [1]; [5]): 0.536
SSMD.CTG (ISC-enriched organoids [1]; [6]): 0.179
SSMD.CTG (ISC-enriched organoids [1]; [7]): 0.139
Dose.FC.LYZ.S (ISC-enriched organoids [2]; Dose 0.08 uM): 0.164 log 2 fold change
Dose.FC.LYZ.S (ISC-enriched organoids [2]; Dose 0.40 uM): 0.106 log 2 fold change
Dose.FC.LYZ.S (ISC-enriched organoids [2]; Dose 2.00 uM): 0.005 log 2 fold change
Dose.FC.LYZ.S (ISC-enriched organoids [2]; Dose 10.00 uM): −0.026 log 2 fold change
Z.LYZ.S (ISC-enriched organoids [2]; [4]): 1.064
Z.LYZ.S (ISC-enriched organoids [2]; [5]): 0.686
Z.LYZ.S (ISC-enriched organoids [2]; [6]): 0.032
Z.LYZ.S (ISC-enriched organoids [2]; [7]): −0.171
SSMD.LYZ.S (ISC-enriched organoids [2]; [4]): 1.259
SSMD.LYZ.S (ISC-enriched organoids [2]; [5]): 0.611
SSMD.LYZ.S (ISC-enriched organoids [2]; [6]): 0.030
SSMD.LYZ.S (ISC-enriched organoids [2]; [7]): −0.147
Dose.FC.LYZ.NS (ISC-enriched organoids [3]; Dose 0.08 uM): 0.054 log 2 fold change
Z.LYZ.NS (ISC-enriched organoids [3]; Dose 0.08 uM): 0.474
Dose.FC.LYZ.NS (ISC-enriched organoids [3]; Dose 0.40 uM): 0.079 log 2 fold change
Z.LYZ.NS (ISC-enriched organoids [3]; Dose 0.40 uM): 0.688
Dose.FC.LYZ.NS (ISC-enriched organoids [3]; Dose 2.00 uM): −0.002 log 2 fold change
Z.LYZ.NS (ISC-enriched organoids [3]; Dose 2.00 uM): −0.017
Dose.FC.LYZ.NS (ISC-enriched organoids [3]; Dose 10.00 uM): −0.046 log 2 fold change
Z.LYZ.NS (ISC-enriched organoids [3]; Dose 10.00 uM): −0.399
SSMD.LYZ.NS (ISC-enriched organoids [3]; [4]): 0.371
SSMD.LYZ.NS (ISC-enriched organoids [3]; [5]): 0.452
SSMD.LYZ.NS (ISC-enriched organoids [3]; [6]): −0.012
SSMD.LYZ.NS (ISC-enriched organoids [3]; [7]): −0.250

NC(=O)c1ccc(I)c([N+](=O)[O-])c1 [Iniparib (BSI-201)]
Dose.FC.CTG (ISC-enriched organoids [1]; Dose 0.08 uM): 0.339 log 2 fold change
Z.CTG (ISC-enriched organoids [1]; Dose 0.08 uM): 0.810
Dose.FC.CTG (ISC-enriched organoids [1]; Dose 0.40 uM): 0.181 log 2 fold change
Z.CTG (ISC-enriched organoids [1]; Dose 0.40 uM): 0.432
Dose.FC.CTG (ISC-enriched organoids [1]; Dose 2.00 uM): 0.157 log 2 fold change
Z.CTG (ISC-enriched organoids [1]; Dose 2.00 uM): 0.375
Dose.FC.CTG (ISC-enriched organoids [1]; Dose 10.00 uM): 0.244 log 2 fold change
Z.CTG (ISC-enriched organoids [1]; Dose 10.00 uM): 0.583
SSMD.CTG (ISC-enriched organoids [1]; [4]): 0.883
SSMD.CTG (ISC-enriched organoids [1]; [5]): 0.347
SSMD.CTG (ISC-enriched organoids [1]; [6]): 0.475
SSMD.CTG (ISC-enriched organoids [1]; [7]): 0.721
Dose.FC.LYZ.S (ISC-enriched organoids [2]; Dose 0.08 uM): 0.032 log 2 fold change
Dose.FC.LYZ.S (ISC-enriched organoids [2]; Dose 0.40 uM): 0.035 log 2 fold change
Dose.FC.LYZ.S (ISC-enriched organoids [2]; Dose 2.00 uM): −0.001 log 2 fold change
Dose.FC.LYZ.S (ISC-enriched organoids [2]; Dose 10.00 uM): −0.010 log 2 fold change
Z.LYZ.S (ISC-enriched organoids [2]; [4]): 0.205
Z.LYZ.S (ISC-enriched organoids [2]; [5]): 0.229
Z.LYZ.S (ISC-enriched organoids [2]; [6]): −0.006
Z.LYZ.S (ISC-enriched organoids [2]; [7]): −0.062
SSMD.LYZ.S (ISC-enriched organoids [2]; [4]): 0.148
SSMD.LYZ.S (ISC-enriched organoids [2]; [5]): 0.247
SSMD.LYZ.S (ISC-enriched organoids [2]; [6]): −0.005
SSMD.LYZ.S (ISC-enriched organoids [2]; [7]): −0.070
Dose.FC.LYZ.NS (ISC-enriched organoids [3]; Dose 0.08 uM): 0.042 log 2 fold change
Z.LYZ.NS (ISC-enriched organoids [3]; Dose 0.08 uM): 0.364
Dose.FC.LYZ.NS (ISC-enriched organoids [3]; Dose 0.40 uM): 0.000 log 2 fold change
Z.LYZ.NS (ISC-enriched organoids [3]; Dose 0.40 uM): 0.003
Dose.FC.LYZ.NS (ISC-enriched organoids [3]; Dose 2.00 uM): 0.016 log 2 fold change
Z.LYZ.NS (ISC-enriched organoids [3]; Dose 2.00 uM): 0.138
Dose.FC.LYZ.NS (ISC-enriched organoids [3]; Dose 10.00 uM): −0.016 log 2 fold change
Z.LYZ.NS (ISC-enriched organoids [3]; Dose 10.00 uM): −0.139
SSMD.LYZ.NS (ISC-enriched organoids [3]; [4]): 0.375
SSMD.LYZ.NS (ISC-enriched organoids [3]; [5]): 0.003
SSMD.LYZ.NS (ISC-enriched organoids [3]; [6]): 0.109
SSMD.LYZ.NS (ISC-enriched organoids [3]; [7]): −0.163

— patent publication US20230398130A1, “METHODS AND COMPOSITIONS FOR DIFFERENTIATING STEM CELLS” (Massachusetts Institute of Technology, priority 2020, published 2023)
